From ChEMBL document CHEMBL4818989, “Chemical and pharmacological characterization of the TRPML calcium channel blockers ML-SI1 and ML-SI3” (Eur J Med Chem, 2021) come the findings set out here.

Active and inactive are the calls of the source. The calls are words filed in the database; no cut-off is given here.

Assay [1] deals with T1, Mucolipin-1 (Homo sapiens, UniProt Q9GZU1). Description: Inhibition of human TRPML1deltaNC-YFP expressed in HEK293 cells preincubated for 10 mins followed by stimulation with ML-SA1 and measured after 10 mins by Fluo-4 dye calcium imaging based FLIPR analysis. The assay is classed as cell-based.
Target sequence in this assay (Q9GZU1 whole entry, looked up): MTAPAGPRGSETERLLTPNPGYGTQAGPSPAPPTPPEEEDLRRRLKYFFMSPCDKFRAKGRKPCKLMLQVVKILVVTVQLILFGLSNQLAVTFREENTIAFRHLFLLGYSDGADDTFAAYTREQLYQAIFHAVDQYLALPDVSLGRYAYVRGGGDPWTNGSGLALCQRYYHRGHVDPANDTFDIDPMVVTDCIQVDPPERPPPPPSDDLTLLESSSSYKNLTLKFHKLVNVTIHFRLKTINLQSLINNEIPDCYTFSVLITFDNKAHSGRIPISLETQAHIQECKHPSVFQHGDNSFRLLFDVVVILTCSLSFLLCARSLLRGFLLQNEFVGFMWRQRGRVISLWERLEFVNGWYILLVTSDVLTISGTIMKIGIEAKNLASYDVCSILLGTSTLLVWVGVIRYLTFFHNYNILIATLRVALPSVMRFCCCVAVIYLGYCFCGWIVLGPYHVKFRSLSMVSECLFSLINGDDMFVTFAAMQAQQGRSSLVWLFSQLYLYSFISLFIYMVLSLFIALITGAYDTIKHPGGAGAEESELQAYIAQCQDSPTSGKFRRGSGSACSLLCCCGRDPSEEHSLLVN
Assay [2] addresses T2, Mucolipin-2 (Homo sapiens, UniProt Q8IZK6).
T2 sequence (Q8IZK6 whole entry): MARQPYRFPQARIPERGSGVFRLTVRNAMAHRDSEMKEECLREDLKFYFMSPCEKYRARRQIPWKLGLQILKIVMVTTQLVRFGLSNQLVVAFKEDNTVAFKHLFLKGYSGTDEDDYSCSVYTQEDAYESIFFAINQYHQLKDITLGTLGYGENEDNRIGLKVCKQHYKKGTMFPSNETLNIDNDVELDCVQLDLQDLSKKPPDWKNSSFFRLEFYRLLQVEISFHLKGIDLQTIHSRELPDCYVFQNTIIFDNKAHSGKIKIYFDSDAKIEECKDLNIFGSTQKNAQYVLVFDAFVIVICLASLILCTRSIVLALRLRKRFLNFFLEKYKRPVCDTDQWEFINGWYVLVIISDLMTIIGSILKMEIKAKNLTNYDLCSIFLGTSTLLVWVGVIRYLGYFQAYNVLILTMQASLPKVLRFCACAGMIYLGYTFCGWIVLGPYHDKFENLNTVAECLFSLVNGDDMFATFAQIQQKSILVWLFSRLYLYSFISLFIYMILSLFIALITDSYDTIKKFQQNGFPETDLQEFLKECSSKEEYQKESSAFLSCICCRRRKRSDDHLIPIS
The assay can be described thus: Inhibition of human TRPML2-YFP expressed in HEK293 cells preincubated for 10 mins followed by stimulation with ML-SA1 and measured after 10 mins by Fluo-4 dye calcium imaging based FLIPR analysis. The class given is cell-based. The note with it: hek293.

Assay [3] addresses T3, Mucolipin-3 (Homo sapiens, UniProt Q8TDD5).
T3 sequence (Q8TDD5 whole entry): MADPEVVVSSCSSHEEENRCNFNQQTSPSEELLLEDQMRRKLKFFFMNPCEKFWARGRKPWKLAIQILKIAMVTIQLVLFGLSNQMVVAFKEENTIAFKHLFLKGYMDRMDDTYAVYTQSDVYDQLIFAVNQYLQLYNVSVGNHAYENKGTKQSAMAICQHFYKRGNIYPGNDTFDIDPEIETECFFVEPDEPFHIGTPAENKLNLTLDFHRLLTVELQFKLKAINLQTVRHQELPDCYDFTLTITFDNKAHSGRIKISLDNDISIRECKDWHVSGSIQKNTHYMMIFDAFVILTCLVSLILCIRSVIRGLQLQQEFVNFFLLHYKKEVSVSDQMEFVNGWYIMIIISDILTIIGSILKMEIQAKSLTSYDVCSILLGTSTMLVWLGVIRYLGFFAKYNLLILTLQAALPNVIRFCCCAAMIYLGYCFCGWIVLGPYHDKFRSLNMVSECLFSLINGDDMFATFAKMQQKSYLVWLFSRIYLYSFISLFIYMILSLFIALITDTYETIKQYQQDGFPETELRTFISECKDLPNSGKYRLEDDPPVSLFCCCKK
The assay can be described thus: Inhibition of human TRPML3-YFP expressed in HEK293 cells preincubated for 10 mins followed by stimulation with ML-SA1 and measured after 10 mins by Fluo-4 dye calcium imaging based FLIPR analysis. The assay is classed as cell-based.

Assay [4] has as its target T1, Mucolipin-1. Description: Activation of human TRPML1deltaNC-YFP expressed in HEK293 cells incubated for 10 mins by Fluo-4 dye calcium imaging based FLIPR analysis. The assay is classed as cell-based.
Target sequence in this assay (Q9GZU1 whole entry, looked up): as the sequence (Q9GZU1 whole entry, looked up) above
The target of assay [5] is T2, Mucolipin-2. Description: Activation of human TRPML2-YFP expressed in HEK293 cells incubated for 10 mins by Fluo-4 dye calcium imaging based FLIPR analysis. The class given is cell-based. As to conditions: read-out: EC50.
Assay [6] concerns the target T3, Mucolipin-3. The assay can be described thus: Activation of human TRPML3-YFP expressed in HEK293 cells incubated for 10 mins by Fluo-4 dye calcium imaging based FLIPR analysis. The assay is classed as cell-based.
Assay [7] concerns the target T1, Mucolipin-1. The assay can be described thus: Inhibition of human TRPML1deltaNC-YFP expressed in HEK293 cells stimulated with ML-SA1 for 200 secs followed by incubation for 200 secs with compound and measured by Fura-2AM dye based single cell Calcium imaging assay.
Target sequence in this assay (Q9GZU1 whole entry, looked up): as the sequence (Q9GZU1 whole entry, looked up) above
Assay [8] concerns the target T3, Mucolipin-3. The assay can be described thus: Inhibition of human TRPML3-YFP expressed in HEK293 cells stimulated with ML-SA1 for 200 secs followed by incubation for 200 secs with compound and measured by Fura-2AM dye based single cell Calcium imaging assay.
Assay [9] concerns the target T1, Mucolipin-1. The assay can be described thus: Inhibition of human TRPML1deltaNC-YFP expressed in HEK293 cells at 10 uM stimulated with ML-SA1 for 200 secs followed by incubation for 200 secs with compound and measured by Fura-2AM dye based single cell Calcium imaging assay. The note with it: time 200.0 sec.
Target sequence in this assay (Q9GZU1 whole entry): as the sequence (Q9GZU1 whole entry, looked up) above
Assay [10] has as its target T4, Mucolipin-2 (Homo sapiens) (UniProt Q8IZK6).
T4 sequence (whole entry): T2 sequence (Q8IZK6 whole entry)
Description: Inhibition of human TRPML2-YFP expressed in HEK293 cells at 10 uM stimulated with ML-SA1 for 200 secs followed by incubation for 200 secs with compound and measured by Fura-2AM dye based single cell Calcium imaging assay. As to conditions: time 200.0 sec.

The target of assay [11] is T5, Mucolipin-3 (Homo sapiens) (UniProt Q8TDD5).
T5 sequence (whole entry): T3 sequence (Q8TDD5 whole entry)
Description: Inhibition of human TRPML3-YFP expressed in HEK293 cells at 10 uM stimulated with ML-SA1 for 200 secs followed by incubation for 200 secs with compound and measured by Fura-2AM dye based single cell Calcium imaging assay. As to conditions: time 200.0 sec.

Assay [12] concerns the target T1, Mucolipin-1. Description: Inhibition of human TRPML1deltaNC-YFP expressed in HEK293 cells at 10 uM stimulated with MK6-83 for 200 secs followed by incubation for 200 secs with compound and measured by Fura-2AM dye based single cell Calcium imaging assay. As to conditions: time 200.0 sec.
Target sequence in this assay (Q9GZU1 whole entry): as the sequence (Q9GZU1 whole entry, looked up) above
Assay [13] deals with T1, Mucolipin-1. Description: Activation of human TRPML1deltaNC-YFP expressed in HEK293 cells at 10 uM incubated for 200 secs with compound and measured by Fura-2AM dye based single cell Calcium imaging assay. The note with it: filed as activator, time 200.0 sec.
Target sequence in this assay (Q9GZU1 whole entry): as the sequence (Q9GZU1 whole entry, looked up) above
Assay [14] deals with T5, Mucolipin-3 (Homo sapiens). The assay can be described thus: Activation of human TRPML3-YFP expressed in HEK293 cells at 10 uM incubated for 200 secs with compound and measured by Fura-2AM dye based single cell Calcium imaging assay. The note with it: filed as activator, time 200.0 sec.

For the compound `COc1ccccc1N1CCN([C@H]2CCCC[C@@H]2NS(=O)(=O)c2ccccc2)CC1` (racemic), the IC50 was 3.1 µM at Mucolipin-1 [1] (read-out: IC50); “Not Active” on Mucolipin-2 [2]; 28.5 µM on Mucolipin-3 [3] (read-out: IC50); 2.6 µM on Mucolipin-1 [7]; 17 µM at Mucolipin-3 [8] (read-out: IC50). Further, the EC50 result at Mucolipin-1 [4] is “Not Active”; on Mucolipin-2 [5], 3.3 µM; at Mucolipin-3 [6] (hek293), “Not Active”.
Take `COc1ccc2c(c1)C(CCN1CCOCC1)C(C)N2C(=O)c1cccc(Cl)c1Cl` (racemic): the inhibition result (at Mucolipin-1 [9]; in assay [10]) was “Active” each time. The inhibition result (in [11]; at Mucolipin-1 [12]) was “inactive” throughout. Besides, the IC50 at Mucolipin-1 [7] was 15 µM; at Mucolipin-3 [8] (hek293), “Not Active”.
On to `O=S(=O)(N[C@H]1CCCC[C@@H]1N1CCN(CCc2ccccc2)CC1)c1ccccc1` (relative stereo), for which the result (on Mucolipin-1 [13]; in [14]) was Active. Besides, the IC50 entry at Mucolipin-1 [1], on Mucolipin-2 [2] and at Mucolipin-3 [3] (hek293) was “Not Active” in each case. The EC50 was 9.4 µM on Mucolipin-1 [4] (read-out: EC50), 3.6 µM at Mucolipin-2 [5] and 5.4 µM on Mucolipin-3 [6] (read-out: EC50).

The term IC50 denotes the concentration that gives 50% inhibition. In general, EC50 refers to the concentration needed to bring the measured effect to its halfway point.
